Measurements taken from patent publication US20240228448A1 (Washington University, priority 2021, published 2024).
Where two headings read alike, the source gives them in different places.

Columns and labels:
S1P1 = S1P1 (Homo sapiens, UniProt P21453); assay: competitive S1Ps cell membrane binding assay against [32P]S1P, S1P1
Description: (§1) One way to measure affinity is use of a general competition binding assay.

S1P5 = S1P5 (Homo sapiens, UniProt Q9H228); assay: competitive S1Ps cell membrane binding assay against [32P]S1P, S1P5; settings: Table 5; read-out: IC50 (nM) S1P5
Description: as §1

S1P2-5 = assay: competitive S1Ps cell membrane binding assay against [32P]S1P, S1P2-5 reported together
Description: as §1

S1P4 = target: T1, S1P4 (Homo sapiens, UniProt O95977); assay: competitive S1Ps cell membrane binding assay against [32P]S1P, S1P4; settings: Table 5; read-out: IC50 (nM) S1P4
T1 sequence (O95977 1-384): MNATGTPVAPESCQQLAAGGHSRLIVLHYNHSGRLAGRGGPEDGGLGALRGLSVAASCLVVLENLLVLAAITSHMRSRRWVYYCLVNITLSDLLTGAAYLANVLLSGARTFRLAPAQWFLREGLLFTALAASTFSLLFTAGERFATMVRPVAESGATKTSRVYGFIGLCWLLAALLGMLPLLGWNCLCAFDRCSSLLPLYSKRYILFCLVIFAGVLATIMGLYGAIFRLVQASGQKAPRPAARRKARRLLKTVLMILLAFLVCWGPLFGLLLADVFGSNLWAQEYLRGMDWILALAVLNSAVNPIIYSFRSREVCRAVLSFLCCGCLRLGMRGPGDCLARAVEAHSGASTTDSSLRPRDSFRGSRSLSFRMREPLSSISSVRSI

[1] = MicroPET brain study in cynomolgus macaque; settings: for brain uptake in nonhuman primates: MicroPET, in words
Description: Using a Focus 220 microPET scanner to collect dynamic scans for 2 hours after intravenous injection of ˜0.35 GBq dose into male macaques. Radiometabolites were measured from arterial blood samples collected at 5, 15, 30, and 60 min post-injection of radiotracer. The HPLC eluent was collected, and fractions were counted in a gamma counter.
Male macaques (˜10 kg) were used for PET imaging data acquisition with a microPET Focus 220 scanner (Siemens Inc., Knoxville, TN). Animals were anesthetized using ketamine and glycopyrrolate and maintained with inhalation of isoflurane. Core temperature was kept at 37° C. with a heated water blanket. The head was secured in a customized head holder. […] Emission data were corrected for dead time, scatter, and attenuation and then reconstructed. […] Predefined brain regions of interest from the template were applied to the co-registered PET image to obtain regional time-activity curves. The measurement of the brain uptake of radiotracer was standardized to body weight and the dose of radioactivity injected to yield a standardized uptake value (SUV).
The brain uptakes of these tracers were measured by Focus 220 microPET scanner to collect dynamic scans for 2 hours after intravenous injection of ˜0.35 GBq dose into male cynomolgus macaques (8-9 kg).

[2] = Human biodistribution / dosimetry PET study of [11C]CS1P1; format: in vivo
Description: One human (88 kg, SIEMENS, patient ID: 1179101) was imaged with a dose of 7.2 mCi (FIG. 10A). Good uptake was found in the brain (FIG. 10B). Residence time and total absorbed dose in individual organs was also measured (FIG. 10C and Table 4).

[3] = read-out: IC50 (nM) S1P1, Table 5
[4] = Table 7, read-out: IC50 (nM) S1P2-5

Chain of S1P5 (Q9H228 whole entry, species assumed): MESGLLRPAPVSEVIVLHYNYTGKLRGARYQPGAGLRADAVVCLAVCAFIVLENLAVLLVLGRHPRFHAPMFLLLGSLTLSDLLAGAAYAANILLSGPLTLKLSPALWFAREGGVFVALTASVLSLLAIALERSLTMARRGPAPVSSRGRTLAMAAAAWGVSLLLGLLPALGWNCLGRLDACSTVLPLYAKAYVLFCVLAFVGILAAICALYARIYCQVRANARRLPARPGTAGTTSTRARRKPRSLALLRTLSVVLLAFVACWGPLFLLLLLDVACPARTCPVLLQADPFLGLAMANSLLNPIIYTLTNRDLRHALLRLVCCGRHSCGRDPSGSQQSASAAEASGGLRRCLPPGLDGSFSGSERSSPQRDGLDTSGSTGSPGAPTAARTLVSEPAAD
Chain of S1P1 (P21453 whole entry, species assumed): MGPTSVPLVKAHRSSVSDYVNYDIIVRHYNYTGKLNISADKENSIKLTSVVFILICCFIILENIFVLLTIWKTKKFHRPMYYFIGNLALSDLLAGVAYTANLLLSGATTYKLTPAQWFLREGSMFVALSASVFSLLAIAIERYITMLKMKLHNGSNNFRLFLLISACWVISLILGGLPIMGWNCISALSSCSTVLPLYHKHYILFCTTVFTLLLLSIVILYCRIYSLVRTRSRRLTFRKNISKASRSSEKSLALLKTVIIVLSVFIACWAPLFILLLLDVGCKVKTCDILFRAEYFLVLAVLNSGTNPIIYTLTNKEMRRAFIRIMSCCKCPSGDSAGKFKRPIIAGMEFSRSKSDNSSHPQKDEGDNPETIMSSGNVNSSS

Row | IC50 (S1P1; IC50 (nM) S1P1, Table 5) | IC50 (S1P5) | SMILES | other results
1 | 4.6 nM | 55.6 nM | Cc1ccccc1-c1ccc(-c2nc(-c3ccc(CO)cc3)no2)cc1C(F)(F)F [TZ82-1] | –
2 | 14.6 nM | 120 nM | CN(CCO)Cc1ccc(-c2noc(-c3ccc(OCCF)c(C(F)(F)F)c3)n2)cc1F [TZ82-114] | –
3 | 57 ± 7.6 nM | – | FCCOc1ccc(-c2nc(-c3ccc4[nH]cnc4c3)no2)cc1C(F)(F)F [TZ82-36] | –
4 | 17 ± 7 nM | – | OCCOCc1ccc(-c2noc(-c3ccc(OCCF)c(C(F)(F)F)c3)n2)cc1F [TZ73-144] | –
5 | 1.1 ± 0.1 nM | 28.4 nM | Cc1ccccc1-c1ccc(-c2nc(-c3cccc4[nH]ccc34)no2)cc1C(F)(F)F [TZ82-4] | –
6 | 3 nM | – | CNC(=O)CCN(C)Cc1ccc(-c2noc(-c3ccc(-c4ccccc4C)c(C(F)(F)F)c3)n2)cc1F [TZ82-118] | –
7 | > 1000 nM | – | CC(C)(C)OC(=O)Nc1cccc(-c2noc(-c3ccc(OCCF)c(C(F)(F)F)c3)n2)c1 [TZ82-40] | –
8 | 2.3 nM | – | Cc1ccccc1-c1ccc(-c2nc(-c3ccc(CN(C)CCS(=O)(=O)O)c(F)c3)no2)cc1C(F)(F)F [TZ82-101] | –
9 | – | 1940 nM | COc1ccc(-c2nc(-c3ccc(CN(C)CCCO)cc3)no2)cc1C(F)(F)F [TZ82-126] | –
10 | 2.8 nM | – | Cc1ccccc1-c1ccc(-c2nc(-c3ccc(COCCCO)c(F)c3)no2)cc1C(F)(F)F [TZ82-78] | –
11 | 157 ± 24 nM | – | OCCn1ccc2ccc(-c3noc(-c4ccc(OCCF)c(C(F)(F)F)c4)n3)cc21 [TZ73-14] | –
12 | 23.8 nM | – | Cc1ccccc1-c1ccc(-c2nc(-c3ccc(CN(C)CCNC(=O)OC(C)(C)C)c(F)c3)no2)cc1C(F)(F)F [TZ82-102] | –
13 | 9.8 nM | 764 nM | Cc1ccccc1-c1ccc(-c2nc(-c3ccc(CCCCO)cc3)no2)cc1C(F)(F)F [TZ82-2] | –
14 | 57 ± 4.6 nM | – | OCCn1ccc2cc(-c3noc(-c4ccc(OCCF)c(C(F)(F)F)c4)n3)ccc21 [TZ73-15] | –
15 | 2.9 nM | 85.2 nM | Cc1ccccc1-c1ccc(-c2nc(-c3ccc(CO)c(F)c3)no2)cc1C(F)F [TZ82-26] | –
16 | 239 nM | 182 nM | OCc1ccc(-c2noc(-c3ccc(OCc4cccnc4F)c(C(F)(F)F)c3)n2)cc1 [TZ82-91] | –
17 | 13.4 nM | – | CNCc1ccc(-c2noc(-c3ccc(OCCF)c(C(F)(F)F)c3)n2)cc1F [TZ82-110] | –
18 | 15 ± 2.6 nM | – | OC(c1ccc(-c2noc(-c3ccc(OCCF)c(C(F)(F)F)c3)n2)cc1)C(F)(F)F (stereo not shown) [TZ73-27] | –
19 | 21 ± 2.5 nM | – | CC(O)c1ccc(-c2noc(-c3ccc(OCCF)c(C(F)(F)F)c3)n2)cc1 (stereo not shown) [TZ73-28] | –
20 | 66.3 nM | – | Cc1ccccc1-c1ccc(-c2nc(-c3ccc(COCCO)c(I)c3)no2)cc1C(F)(F)F [TZ73-127] | –
21 | 5.2 ± 2.7 nM | – | Cc1ccccc1-c1ccc(-c2nc(-c3ccc(CN(C)CCC(=O)O)c(I)c3)no2)cc1C(F)(F)F [TZ73-143] | –
22 | 28 ± 5.8 nM | – | OCc1nc2cc(-c3noc(-c4ccc(OCCF)c(C(F)(F)F)c4)n3)ccc2[nH]1 [TZ82-37] | –

More lines, now with the values behind:

Row | SMILES | IC50 (S1P1; IC50 (nM) S1P1, Table 5) | IC50 (S1P5) | other results
23 | Cc1ccccc1-c1ccc(-c2nc(-c3ccc(CN(C)CCC(=O)O)c(Br)c3)no2)cc1C(F)(F)F [TZ82-65] | 2.1 nM | 11 nM | –
24 | OCCOCc1ccc(-c2noc(-c3ccc(OCCF)c(C(F)(F)F)c3)n2)cc1I [TZ73-126] | 118 nM | – | –
25 | CN(CCCO)Cc1ccc(-c2noc(-c3ccc(OCCF)c(C(F)(F)F)c3)n2)cc1 [TZ82-124] | – | 450 nM | –
26 | Nc1ccc(-c2noc(-c3ccc(OCCF)c(C(F)(F)F)c3)n2)cc1 [TZ82-43] | 44 ± 0.6 nM | – | –
27 | CN(CCC(=O)O)Cc1ccc(-c2noc(-c3ccc(OCc4cccnc4F)c(C(F)(F)F)c3)n2)cc1F [TZ82-55] | 159 nM | 74.4 nM | –
28 | Nc1cccc(-c2noc(-c3ccc(OCCF)c(C(F)(F)F)c3)n2)c1 [TZ82-42] | 29 ± 0.5 nM | – | –
29 | FCCOc1ccc(-c2nc(-c3ccc4cc[nH]c4c3)no2)cc1C(F)(F)F [TZ73-11] | – | – | IC50 (S1P1; [3]): 34 ± 2.4 nM
30 | Cc1ccccc1-c1ccc(-c2nc(-c3ccc(CN(C)CCC(=O)O)c(F)c3)no2)cc1C(F)(F)F [TZ33-21] | – | – | IC50 (S1P2-5; [4]): > 1000 nM; IC50 (S1P2-5; read-out: IC50 for S1P2-5): > 1000 nM; IC50 (S1P4): > 1000 nM
31 | FCCOc1ccc(-c2nc(-c3cccc4cc[nH]c34)no2)cc1C(F)(F)F [TZ82-35] | – | – | IC50 (S1P1; [3]): 98 ± 26 nM
32 | CN(C(=O)OC(C)(C)C)c1cccc(-c2noc(-c3ccc(OCCF)c(C(F)(F)F)c3)n2)c1 [TZ73-124] | > 1000 nM | – | –
33 | Cc1ccccc1-c1ccc(-c2nc(-c3ccc(CN(C)CC(=O)O)c([18F])c3)no2)cc1C(F)(F)F [[^18F]TZ8247] | – | – | brain uptake in nonhuman primates [1]: high brain uptake
34 | FCCOc1ccc(-c2nc(-c3cccc4[nH]ccc34)no2)cc1C(F)(F)F [TZ82-34] | – | – | IC50 (S1P2-5; [4]): > 1000 nM
35 | Cc1ccccc1-c1ccc(-c2nc(-c3ccc(CN([11CH3])CCC(=O)O)c(F)c3)no2)cc1C(F)(F)F [[^11C]CS1P1] | – | – | brain uptake, maximum SUV value ([1]; macaque brain, from 20 to 120 min post-injection): ~2.3; total absorbed dose ([2]; Brain, human): 1.02 ± 0.1 μGy/MBq; total absorbed dose ([2]; Gall bladder, human): 4.82 ± 0.19 μGy/MBq; total absorbed dose ([2]; Heart wall, human): 2.06 ± 0.13 μGy/MBq; total absorbed dose ([2]; Kidneys, human): 4.66 ± 0.22 μGy/MBq; total absorbed dose ([2]; Liver, human): 9.88 ± 0.03 μGy/MBq; total absorbed dose ([2]; Lung, human): 2.13 ± 0.56 μGy/MBq; total absorbed dose ([2]; Pancreas, human): 2.22 ± 0.07 μGy/MBq; total absorbed dose ([2]; Spleen, human): 3.09 ± 0.35 μGy/MBq; total absorbed dose ([2]; Urinary bladder, human): 0.48 ± 0.32 μGy/MBq; total human effective dose ([2]; administration of 10 mCi (370 MBq)): < 0.6 mSv; Effective does (μSv/MBq) ([2]; human): 1.60 ± 0.15 μSv/MBq; safety of imaging for clinical PET studies ([2]; human, in words): safe
36 | Cc1ccccc1-c1ccc(-c2nc(-c3ccc(CN(C)CCCCO)c(F)c3)no2)cc1C(F)(F)F [TZ82-53] | – | – | IC50 (S1P1; [3]): 4.9 nM
37 | Cc1ccccc1-c1ccc(-c2nc(-c3ccc(CNCCC(=O)O)c(F)c3)no2)cc1C(F)(F)F [TZ82-94] | 0.7 nM | 7.2 nM | –
38 | CN(CCCCO)Cc1ccc(-c2noc(-c3ccc(OCCF)c(C(F)(F)F)c3)n2)cc1F [TZ82-115] | – | 721 nM | –
39 | CN(CCC(=O)O)Cc1ccc(-c2noc(-c3ccc(OCCF)c(C(F)(F)F)c3)n2)cc1I [TZ73-147] | – | – | IC50 (S1P1; [3]): 33.1 ± 11.1 nM
40 | OCc1ccc(-c2noc(-c3ccc(OCCF)c(C(F)(F)F)c3)n2)cc1F [TZ67-138] | – | – | IC50 (S1P2-5; [4]): > 1000 nM
41 | Cc1ccccc1-c1ccc(-c2nc(-c3ccc(CO)c(F)c3)no2)cc1C(F)(F)F [TZ73-135] | – | – | IC50 (S1P2-5; [4]): > 1000 nM
42 | CNc1cccc(-c2noc(-c3ccc(OCCF)c(C(F)(F)F)c3)n2)c1 [TZ82-41] | 82 ± 1.8 nM | – | –
43 | OCc1ccc(-c2noc(-c3ccc(OCc4cccc(F)n4)c(C(F)(F)F)c3)n2)cc1 [TZ82-92] | 243 nM | 934 nM | –
44 | CN(CCC(=O)O)Cc1ccc(-c2noc(-c3ccc(OCc4cccc(F)n4)c(C(F)(F)F)c3)n2)cc1F [TZ82-56] | 55.4 nM | 39.3 nM | –
45 | OCCOCc1ccc(-c2noc(-c3ccc(OCCF)c(C(F)(F)F)c3)n2)cc1 [TZ48-77] | – | – | IC50 (S1P2-5; [4]): > 1000 nM
46 | Cc1ccccc1-c1ccc(-c2nc(-c3ccc(CNCCCO)c(F)c3)no2)cc1C(F)(F)F [TZ82-95] | – | 12.8 nM | IC50 (S1P1; [3]): 2.1 nM
47 | Cc1ccccc1-c1ccc(-c2nc(-c3ccc(COCCCCCO)c(F)c3)no2)cc1C(F)(F)F [TZ82-29] | 4.9 nM | – | IC50 (S1P2-5; [4]): > 1000 nM; IC50 (S1P1; IC50 (nM) S1P1, Table 7): 16.1 ± 0.3 nM
48 | Cc1ccccc1-c1ccc(-c2nc(-c3ccc(CNO)c(F)c3)no2)cc1C(F)(F)F [TZ82-105] | 8.7 nM | – | –
49 | Cc1ccccc1-c1ccc(-c2nc(-c3ccc(CN(C)CCCC(=O)O)c([18F])c3)no2)cc1C(F)(F)F [[^18F]TZ8248] | – | – | brain uptake in nonhuman primates [1]: high brain uptake; brain uptake, standard uptake value (SUV) ([1]; macaque brain, 120 min post-injection): ~2.8
50 | Cc1ccccc1-c1ccc(-c2nc(-c3ccc(COCCO)c(F)c3)no2)cc1C(F)(F)F [TZ82-3] | – | – | IC50 (S1P2-5; [4]): > 1000 nM
